This is an account of results in patent US8349880B2, “Bicyclic compounds for the reduction of beta-amyloid production” (Bristol-Myers Squibb Company, priority 2009, dated 2013).

pIC50: −log10 of the molar value.

One assay relates to Aβ1-42 production. The assay is described as follows: Cellular assay for inhibition of Aβ1-42 production (H4 APP751 SWE clone 8.20). The format is cell-based. The conditions noted are these: 19 h, H4 APP751 SWE clone 8.20 cells, 19 h incubation; read-out: Activity Rating (Aβ42 cellular IC50, given as a number). The essentials:
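H4 cells stably expressing APP751 with the Swedish mutation (1.5×10^4 cells/well) incubated with compound for 19 h at 37° C in DMEM with 0.0125% BSA. Secreted Aβ42 measured overnight at 4° C by HTRF-type pairing of 565 (Aβ42 neoepitope) and 26D6 (N-terminal) antibodies. IC50 from curve fit.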
The pIC50 is the IC50 on a negative log10 scale, so that one unit is a factor of ten. On to `COc1cc(Nc2nc3c(s2)CCCC3(C)c2ccccc2)ccc1-n1cnc(Cl)c1` (stereo not shown) [Example 73, N-(4-(4-chloro-1H-imidazol-1-yl)-3-methoxyphenyl)-4-methyl-4-phenyl-4,5,6,7-tetrahydrobenzo[d]thiazol-2-amine 2,2,2-trifluoroacetate], for which the pIC50 is 6.85.

Turning to `COc1cc(Nc2nc3c(s2)CCCC3(N)c2ccccc2)ccc1-n1cnc(C)n1` (stereo not shown) [Example 82, N2-(3-methoxy-4-(3-methyl-1H-1,2,4-triazol-1-yl)phenyl)-4-phenyl-4,5,6,7-tetrahydrobenzo[d]thiazole-2,4-diamine], the pIC50 was 6.72.

With `COc1cc(Nc2nc3n(n2)CCCCC3c2ccc(F)cc2)cnc1-n1cnc(Cl)c1` (stereo not shown) [Example 86, N-(6-(4-chloro-1H-imidazol-1-yl)-5-methoxypyridin-3-yl)-9-(4-fluorophenyl)-6,7,8,9-tetrahydro-5H-[1,2,4]triazolo[1,5-a]azepin-2-amine], the pIC50 was 8.22.

Regarding `COc1cc(Nc2cc3n(n2)C(c2ccc(F)cc2)CCC3)ccc1-n1cnc(Cl)c1` (stereo not shown) [Example 90, N-(4-(4-chloro-1H-imidazol-1-yl)-3-methoxyphenyl)-7-(4-fluorophenyl)-4,5,6,7-tetrahydropyrazolo[1,5-a]pyridin-2-amine], the pIC50 is 7.92.

`COc1cc(Nc2nc3n(n2)CCCCC3(O)c2ccc(F)cc2)ccc1-n1cnc(Cl)c1` (stereo not shown) [Example 92, 2-(4-(4-chloro-1H-imidazol-1-yl)-3-methoxyphenylamino)-9-(4-fluorophenyl)-6,7,8,9-tetrahydro-5H-[1,2,4]triazolo[1,5-a]azepin-9-ol]: the pIC50 is 7.96.

For `Cc1nc(C)n(-c2ccc(Nc3nc4n(n3)CCCCC4c3ccc(OCC(F)F)cc3)cc2F)n1` (stereo not shown) [Example 109, 9-(4-(2,2-difluoroethoxy)phenyl)-N-(4-(3,5-dimethyl-1H-1,2,4-triazol-1-yl)-3-fluorophenyl)-6,7,8,9-tetrahydro-5H-[1,2,4]triazolo[1,5-a]azepin-2-amine 2,2,2-trifluoroacetate], the pIC50 was 6.62.

The same assay, now with this note: 19 h, H4 APP751 SWE clone 8.20 cells, 19 h incubation; read-out: Activity Rating (based on Aβ42 cellular IC50 values).
Take `COc1cc(Nc2nc3c(s2)CCCC3c2ccccc2)ccc1-n1cnc(C)c1` (stereo not shown) [Example 71, N-(3-methoxy-4-(4-methyl-1H-imidazol-1-yl)phenyl)-4-phenyl-4,5,6,7-tetrahydrobenzo[d]thiazol-2-amine 2,2,2-trifluoroacetate]: the pIC50 was 7.00 to 8.00.

As to `COc1cc(Nc2nc3c(s2)CCCC3c2ccccc2)ccc1-c1ccnc(C)c1` (stereo not shown) [Example 72, N-(3-methoxy-4-(2-methylpyridin-4-yl)phenyl)-4-phenyl-4,5,6,7-tetrahydrobenzo[d]thiazol-2-amine 2,2,2-trifluoroacetate], the pIC50 is 7.00 to 8.00.

On to `COc1cc(Nc2nc3c(s2)CC2(CC3c3ccc(F)cc3)OCCO2)ccc1-n1cnc(Cl)c1` (stereo not shown) [Example 74, N-(4-(4-chloro-1H-imidazol-1-yl)-3-methoxyphenyl)-4-(4-fluorophenyl)-5,7-dihydro-4H-spiro[benzo[d]thiazole-6,2′-[1,3]dioxolan]-2-amine], for which the pIC50 is 7.00 to 8.00.

With `COc1cc(Nc2nc3c(s2)CC(=O)CC3c2ccc(F)cc2)ccc1-n1cnc(Cl)c1` (stereo not shown) [Example 75, 2-(4-(4-chloro-1H-imidazol-1-yl)-3-methoxyphenylamino)-4-(4-fluorophenyl)-4,5-dihydrobenzo[d]thiazol-6(7H)-one], the pIC50 is 7.00 to 8.00.

`COc1cc(Nc2nc3c(s2)CC(O)CC3c2ccc(F)cc2)ccc1-n1cnc(Cl)c1` (stereo not shown) [Example 76, 2-(4-(4-chloro-1H-imidazol-1-yl)-3-methoxyphenylamino)-4-(4-fluorophenyl)-4,5,6,7-tetrahydrobenzo[d]thiazol-6-ol]: the pIC50 is over 8.00.

Take `COc1cc(Nc2nc3c(s2)CC(N)CC3c2ccc(F)cc2)ccc1-n1cnc(Cl)c1` (stereo not shown) [Example 77, N2-(4-(4-chloro-1H-imidazol-1-yl)-3-methoxyphenyl)-4-(4-fluorophenyl)-4,5,6,7-tetrahydrobenzo[d]thiazole-2,6-diamine]: the pIC50 was 6.00 to 7.00.

Take `COc1cc(Nc2nc3c(s2)CC(N(C)C)CC3c2ccc(F)cc2)ccc1-n1cnc(Cl)c1` (stereo not shown) [Example 78, N2-(4-(4-chloro-1H-imidazol-1-yl)-3-methoxyphenyl)-4-(4-fluorophenyl)-N6,N6-dimethyl-4,5,6,7-tetrahydrobenzo[d]thiazole-2,6-diamine]: the pIC50 was 6.00 to 7.00.

`CNC1Cc2sc(Nc3ccc(-n4cnc(Cl)c4)c(OC)c3)nc2C(c2ccc(F)cc2)C1` (stereo not shown) [Example 79, N2-(4-(4-chloro-1H-imidazol-1-yl)-3-methoxyphenyl)-4-(4-fluorophenyl)-N-6-methyl-4,5,6,7-tetrahydrobenzo[d]thiazole-2,6-diamine]: the pIC50 was 7.00 to 8.00.

In the case of `COc1cc(Nc2nc3c(s2)CCCC3Cc2ccccc2)ccc1-n1cnc(Cl)c1` (stereo not shown) [Example 80, 4-benzyl-N-(4-(4-chloro-1H-imidazol-1-yl)-3-methoxyphenyl)-4,5,6,7-tetrahydrobenzo[d]thiazol-2-amine 2,2,2-trifluoroacetate], the pIC50 was 6.00 to 7.00.

In the case of `COc1cc(Nc2nc3c(s2)CCCC3(O)c2ccccc2)ccc1-n1cnc(C)n1` (stereo not shown) [Example 81, 2-(3-methoxy-4-(3-methyl-1H-1,2,4-triazol-1-yl)phenylamino)-4-phenyl-4,5,6,7-tetrahydrobenzo[d]thiazol-4-ol], the pIC50 was 7.00 to 8.00.

For the molecule `COc1cc(Nc2nc3c(s2)CCCC3(NCc2ccc(Cl)cc2)c2ccccc2)ccc1-n1cnc(Cl)c1` (stereo not shown) [Example 83, N2-(4-(4-chloro-1H-imidazol-1-yl)-3-methoxyphenyl)-N4-(4-chlorobenzyl)-4-phenyl-4,5,6,7-tetrahydrobenzo[d]thiazole-2,4-diamine], the pIC50 was 6.00 to 7.00.

With `COc1cc(Nc2nc3c(s2)CC(OC)(OC)CC3c2ccc(F)cc2)ccc1-n1cnc(Cl)c1` (stereo not shown) [Example 84, N-(4-(4-chloro-1H-imidazol-1-yl)-3-methoxyphenyl)-4-(4-fluorophenyl)-6,6-dimethoxy-4,5,6,7-tetrahydrobenzo[d]thiazol-2-amine], the pIC50 was 7.00 to 8.00.

Regarding `COc1cc(Nc2nc3c(s2)CCCCC3c2ccc(F)cc2)ccc1-n1cnc(Cl)c1` (stereo not shown) [Example 85, N-(4-(4-chloro-1H-imidazol-1-yl)-3-methoxyphenyl)-4-(4-fluorophenyl)-5,6,7,8-tetrahydro-4H-cyclohepta[d]thiazol-2-amine 2,2,2-trifluoroacetate], the pIC50 is 7.00 to 8.00.

Consider `COc1cc(Nc2nc3n(n2)C(c2ccc(F)cc2)CCC3)ccc1-n1cnc(Cl)c1` (stereo not shown) [Example 89, N-(4-(4-chloro-1H-imidazol-1-yl)-3-methoxyphenyl)-5-(4-fluorophenyl)-5,6,7,8-tetrahydro-[1,2,4]triazolo[1,5-a]pyridin-2-amine 2,2,2-trifluoroacetate], for which the pIC50 was 7.00 to 8.00.

Regarding `Cc1ncnn1-c1ccc(Nc2nc3n(n2)CCCCC3c2ccc(F)cc2)cc1F` (stereo not shown) [Example 93, N-(3-fluoro-4-(5-methyl-1H-1,2,4-triazol-1-yl)phenyl)-9-(4-fluorophenyl)-6,7,8,9-tetrahydro-5H-[1,2,4]triazolo[1,5-a]azepin-2-amine], the pIC50 was 7.00 to 8.00.

Take `Cc1ncn(-c2ccc(Nc3nc4n(n3)CCCCC4c3ccc(OC(F)(F)F)cc3)cc2F)n1` (stereo not shown) [Example 96, N-(3-fluoro-4-(3-methyl-1H-1,2,4-triazol-1-yl)phenyl)-9-(4-(trifluoromethoxy)phenyl)-6,7,8,9-tetrahydro-5H-[1,2,4]triazolo[1,5-a]azepin-2-amine]: the pIC50 is over 8.00.

On to `Cc1ncnn1-c1ccc(Nc2nc3n(n2)CCCCC3c2ccc(OC(F)(F)F)cc2)cc1F` (stereo not shown) [Example 99, N-(3-fluoro-4-(5-methyl-1H-1,2,4-triazol-1-yl)phenyl)-9-(4-(trifluoromethoxy)phenyl)-6,7,8,9-tetrahydro-5H-[1,2,4]triazolo[1,5-a]azepin-2-amine], for which the pIC50 was 7.00 to 8.00.

In the case of `COc1cc(Nc2nc3n(n2)CCCCC3c2ccc(OC(C)C)cc2)ccc1-n1cnc(Cl)c1` (stereo not shown) [Example 102, N-(4-(4-chloro-1H-imidazol-1-yl)-3-methoxyphenyl)-9-(4-isopropoxyphenyl)-6,7,8,9-tetrahydro-5H-[1,2,4]triazolo azepin-2-amine], the pIC50 is over 8.00.

`COc1cc(Nc2nc3n(n2)CCCCC3c2ccc(OCC(F)(F)F)cc2)ccc1-n1cnc(Cl)c1` (stereo not shown) [Example 105, N-(4-(4-chloro-1H-imidazol-1-yl)-3-methoxyphenyl)-9-(4-(2,2,2-trifluoroethoxy)phenyl)-6,7,8,9-tetrahydro-5H-[1,2,4]triazolo[1,5-a]azepin-2-amine]: the pIC50 was 7.00 to 8.00.

Regarding `Cc1ncn(-c2c(F)cc(Nc3nc4n(n3)CCCCC4c3ccc(OC(F)(F)F)cc3)cc2F)n1` (stereo not shown) [Example 108, N-(3,5-difluoro-4-(3-methyl-1H-1,2,4-triazol-1-yl)phenyl)-9-(4-(trifluoromethoxy)phenyl)-6,7,8,9-tetrahydro-5H-[1,2,4]triazolo[1,5-a]azepin-2-amine], the pIC50 was 7.00 to 8.00.

On to `Cc1ncnn1-c1ccc(Nc2nc3n(n2)CCCCC3c2ccc(OCC(F)(F)F)cc2)cc1F` (stereo not shown) [Example 110, N-(3-fluoro-4-(5-methyl-1H-1,2,4-triazol-1-yl)phenyl)-9-(4-(2,2,2-trifluoroethoxy)phenyl)-6,7,8,9-tetrahydro-5H-[1,2,4]triazolo[1,5-a]azepin-2-amine], for which the pIC50 is 7.00 to 8.00.

On to `Cc1ncn(-c2ccc(Nc3nc4n(n3)CCCCC4c3ccc(OCC(F)(F)F)cc3)cc2F)n1` (stereo not shown) [Example 113, N-(3-fluoro-4-(3-methyl-1H-1,2,4-triazol-1-yl)phenyl)-9-(4-(2,2,2-trifluoroethoxy)phenyl)-6,7,8,9-tetrahydro-5H-[1,2,4]triazolo[1,5-a]azepin-2-amine], for which the pIC50 was 7.00 to 8.00.
